Experimental data published in patent publication EP3293246A1, “LUBRICANT COMPOSITIONS CONTAINING DIUREA COMPOUNDS” (BASF SE, priority 2016, dated 2018).

Test: Solubility 0.5% in base oil Yubase 4, visual inspection of appearance
Assay type: physicochemical
Details: 0.5 g compound stirred with 99.5 g Yubase 4 at 100°C for 4 hours, cooled to room temperature
Method: For the determination of the solubilities, 0.5 g of the compound under test was stirred with 99.5 g of Yubase 4 at 100°C for 4 hours and subsequently cooled to room temperature. The appearance of the solution was assessed by visual inspection.

Solubility 0.5% in Yubase 4; visible appearance	SMILES
no clear solution	CCCCC(CC)CNC(=O)Nc1ccc(C)c(NC(=O)NCC(CC)CCCC)c1 (stereo not drawn) [Example 1]
no clear solution	Cc1ccc(NC(=O)NC(C)CCCC(C)C)cc1NC(=O)NC(C)CCCC(C)C (stereo not drawn) [Example 6]
no clear solution	CCCCCCCCC=CCCCCCCCCNC(=O)Nc1ccc(C)c(NC(=O)NCCCCCCCCC=CCCCCCCCC)c1 [Example 5]
